Reference: US12357565B2, “Ocular implant containing a tyrosine kinase inhibitor” (Ocular Therapeutix, Inc., priority 2020, dated 2025)

Key:
[1] = Rugo et al. 2005, patients; cited from earlier work
[2] = 1.25 mg dose, rabbits (Sinapis et al., 2011); cited from earlier work
[3] = system: VEGF-induced vascular leakage; experiment: VEGF challenge in rabbits: vascular leakage scored by fluorescein angiography; format: in vivo; conditions: rabbit; 1.25 mg Avastin® alone (group 3)

## CNC(=O)c1ccccc1Sc1ccc2c(/C=C/c3ccccn3)n[nH]c2c1 [axitinib, N-methyl-2-[3-((E)-2-pyridin-2-yl-vinyl)-1H-indazol-6-ylsulfanyl]-benzamide]
[1]
  Clearance half-life (t1/2): a few hours

## Avastin®: anti-VEGF therapeutic, 1.25 mg intravitreal
[2]
  Half-life: 158 h
[3]
  Time after which vascular leakage re-occurred (effect lasted until): 3 months
